Source: paper PMC13236579, “Synthesis of aryl-fused bicyclo[3.1.1]heptanes and validation as naphthyl bioisosteres” (Nature Chemistry, 2026)
Several values for one entry are separate records, joined by “and”; a condition that tells them apart may be missing. Equal entries are not always repeated. Where two headings read alike, the source gives them in different places.

Tests used:
[1] = Kinetic solubility assay in phosphate buffer; assay type: physicochemical; conditions: aqueous buffer, kinetic from dmso stock, 50 mM PB (pH 7.4), room temperature
Description: A 50 mM phosphate buffer (pH 7.4) was prepared by mixing 50 mM Na₂HPO₄ (3.549 g in 500 mL H₂O, pH ≈ 9.4) and 50 mM NaH ₂PO₄ (3.000 g in 500 mL H₂O, pH ≈ 4.5). To obtain the working buffer, 15 mL of Na₂HPO₄ solution was transferred into a 50 mL tube and adjusted to pH 7.4 ± 0.05 with 50 mM NaH₂PO₄. For solubility determination, 10 µL of compound stock solution was added to each well of a 96 -well plate, followed by 490 µL of buffer. Samples were vortexed for 2 min, shaken at 70 x g for 24 h at room temperature, and then centrifuged at 25 °C for 10 min (1800 x g). Supernatants were filtered through MultiScreen® Solvinert plates (Millipore/Merck) by centrifugation (≥ 5 min) and collected into a fresh 96 -well plate. Filtrate concentrations were quantified by LC-UV using an ACQUITY UPLC BEH C18 (1.7 µm, 50 mm) column with Mobile Phase A (0.1% TFA, 5 mM NH ₄OAc in H₂O/ACN 95:5 v/v) and Mobile Phase B (0.1% TFA, 5 mM NH ₄OAc in H₂O/ACN 5:95 v/v). […]
Compound ID Batch Media Kinetic Solubility Kinetic Solubility

[2] = Metabolic stability in mouse liver microsomes (MLM) with or without ANF; assay type: in vitro ADME; conditions: for half-life at 1 μM / microsomal CLint at 1 μM: CD-1, mouse, liver microsomes, 1 μM compound; for microsomal CLint at 1 μM: read-out: CLint(mic)
Description: Finally, we subjected the most promising derivatives to metabolic stability studies in mouse liver microsomes (MLMs), a validated model for understanding phase I metabolism of drugs (Table 1). To investigate whether the analogues would be susceptible to CYPs metabolism, we repeated these tests in the presence of 3 μM α-naphthoflavone (ANF). ANF is a well-known inhibitor of CYP1A enzymes, which is responsible for the CYP oxidative metabolism of naphthalene ring in ezutromid. […] These findings support the strategy that BCHep substitution mitigates the metabolic liabilities associated with ezutromid, by both preserving metabolic stability and avoiding CYP1A-mediated metabolism. [table] page 148: Fig.S178. […] Data have been obtained by RT-qPCR, and analysed using the 2-∆∆Ct method. Values obtained have been normalized to control (DMSO 1%), and presented as Mean + SEM (n=4). Statistical analysis was performed using the Ordinary One-way ANOVA followed by Dunnett’s multiple comparisons test against Vehicle Control: **: p < 0.005; ****: p < 0.0001 (grey). Metabolic stability Metabolic stability of compounds was assessed in Mouse Liver Microsomes (MLM) by WuxiAppTech (Shangai, China). Briefly, ACN solutions of test compounds ( 50a-c, i.a concentration 1μM) were dispensed in duplicate in a 96-well plate using an Apricot automation workstation. A solution of MLM (CD-1 Mouse, RILD, Cat. number LM-XS-02M) in PBS, with or without ANF, was added to each compound and plates were incubated at 37°C for 10 minutes. Reactions were then initiated by adding NADPH (i.a. 1mM, 0.5mM MgCl2) an d […] performed by adding stop solution before activating the reaction). NADPH -independent metabolism was assessed for each condition by replacing NADPH solution with PBS b uffer. Phenacetine, diclofenac and propafenone were used as controls. After proper incubation time, reaction was stopped by addition of ice -cold ACN and the plates were sealed, shaken and centrifuged at 1800 x g and 4°C for 20 minutes. The supernatant was then subjected to LC/MS-MS analysis for residual drug quantitation using 250 nM tolbutamide and 250 nM labetalol as internal standards. Half-life (t1/2) and CLint (Intrinsic clearance) were calculated using standard pharmacokinetic calculations based on the decay of drug concentration over time. […] The test compound 50b at 10 µM was incubated with liver microsomes in the presence of NADPH at […] The positive control, 7-ethoxycoumarin (7-EC) at 10 µM, was run concurrently to 147 (1 picture or pasted object on this page, not shown here)

[3] = target: T1, aryl hydrocarbon receptor (AhR) (Homo sapiens, UniProt P35869); assay: AhR antagonism: CYP1A1 mRNA levels in HepG2 cells by RT-qPCR; assay type: cell-based; conditions: HepG2, 4 h incubation, 2^-ΔΔCt, normalized to DMSO control
T1 construct: Human hepatocellular carcinoma (HepG2) cell lines were acquired from Abcam; host or cells: HepG2 (human hepatocellular carcinoma)
T1 sequence (P35869 11-848): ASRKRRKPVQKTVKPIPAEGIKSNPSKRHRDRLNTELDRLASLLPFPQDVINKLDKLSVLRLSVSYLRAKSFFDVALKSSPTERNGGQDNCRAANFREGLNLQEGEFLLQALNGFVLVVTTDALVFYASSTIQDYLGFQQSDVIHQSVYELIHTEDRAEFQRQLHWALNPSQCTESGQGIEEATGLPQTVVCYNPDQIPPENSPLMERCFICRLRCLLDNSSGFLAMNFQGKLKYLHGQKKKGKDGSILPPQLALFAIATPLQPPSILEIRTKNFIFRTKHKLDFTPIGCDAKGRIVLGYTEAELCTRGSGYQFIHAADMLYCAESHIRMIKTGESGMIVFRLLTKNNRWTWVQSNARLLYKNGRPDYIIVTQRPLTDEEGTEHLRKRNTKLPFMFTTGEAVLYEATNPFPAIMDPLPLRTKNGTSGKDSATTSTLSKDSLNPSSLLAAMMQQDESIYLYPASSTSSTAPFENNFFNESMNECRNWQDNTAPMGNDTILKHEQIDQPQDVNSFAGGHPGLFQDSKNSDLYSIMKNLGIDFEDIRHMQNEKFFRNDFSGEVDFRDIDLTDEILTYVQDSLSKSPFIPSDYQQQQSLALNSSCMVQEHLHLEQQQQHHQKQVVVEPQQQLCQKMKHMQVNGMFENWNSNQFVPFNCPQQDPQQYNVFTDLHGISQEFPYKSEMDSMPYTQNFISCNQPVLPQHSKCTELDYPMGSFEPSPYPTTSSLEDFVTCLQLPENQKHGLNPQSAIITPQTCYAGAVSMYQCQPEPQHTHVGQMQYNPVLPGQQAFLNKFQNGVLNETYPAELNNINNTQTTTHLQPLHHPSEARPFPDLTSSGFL
Description: To this aim, we decided to measure the activity of ezutromid and the analogues against ezutromid's primary target, which has recently been identified as the aryl hydrocarbon receptor (AhR)[40]. This nuclear transcription factor plays a pivotal role in the metabolism of exogenous small molecules by targeting nuclear DNA to upregulate the expression of several isoforms of CYP enzymes responsible for the phase I metabolism of drugs, such as CYP1A isoforms (Fig. 5a). Therefore, AhR inhibition can be monitored by measuring the relative expression of these genes, with lower CYP1A1 mRNA levels being proportional to AhR antagonism.  Fig. 5 AhR antagonism and biological evaluation of BCHep analogues. a, A schematic representation of how ezutromid antagonizes AhR preventing its translocation into the nuclei and its subsequent upregulation of CYP1A1 enzyme. The inhibition of AhR can therefore be evaluated as a decrease in CYP1A1 expression. b, The evaluation of 50a-c as AhR antagonists compared with ezutromid. Data have been obtained by quantitative RT-qPCR and analysed using the 2^-ΔΔCt method. Values obtained have been normalized to control (DMSO 1%) and presented as mean + s.e.m. The IC50 values were determined from biological triplicates, except for compounds 50c and ezutromid, which were measured from duplicate experimental replicates.

[4] = MetID of 50b in liver microsomes (LC-UV-MS); assay type: in vitro ADME, human
Description: Fig.S178. Evaluation of 50a-c as AhR antagonists compared to Ezutromid. Data have been obtained by RT-qPCR, and analysed using the 2-∆∆Ct method. Values obtained have been normalized to control (DMSO 1%), and presented as Mean + SEM (n=4). Statistical analysis was performed using the Ordinary One-way ANOVA followed by Dunnett’s multiple comparisons test against Vehicle Control: **: p < 0.005; ****: p < 0.0001 (grey).
Metabolic stability of compounds was assessed in Mouse Liver Microsomes (MLM) by WuxiAppTech (Shangai, China). Briefly, ACN solutions of test compounds ( 50a-c, i.a concentration 1μM) were dispensed in duplicate in a 96-well plate using an Apricot automation workstation. […] NADPH -independent metabolism was assessed for each condition by replacing NADPH solution with PBS b uffer. […]
After proper incubation time, reaction was stopped by addition of ice -cold ACN and the plates were sealed, shaken and centrifuged at 1800 x g and 4°C for 20 minutes. The supernatant was then subjected to LC/MS-MS analysis for residual drug quantitation using 250 nM tolbutamide and 250 nM labetalol as internal standards. Half-life (t1/2) and CLint (Intrinsic clearance) were calculated using standard pharmacokinetic calculations based on the decay of drug concentration over time. […]
incubation system was reliable for metabolic study. After incubation, the samples were analyzed by LC - UV-MS. […]

utrophin = tested on: utrophin; design: method as in doi:10.1080/21678707.2018.1438261; conditions: patients with DMD, cited from earlier work
[5] = with α-naphthoflavone (ANF, CYP1A inhibitor) 3 μM, with 3 μM ANF (CYP1A inhibitor)
[6] = with α-naphthoflavone (ANF, CYP1A inhibitor) 3 μM, with 3 μM ANF

**Q.** For CCS(=O)(=O)c1ccc2oc(C34Cc5ccccc5C(C3)C4)nc2c1 [50a], which solubility kinetic at 24 h [1] is on record?
**A.** The solubility kinetic at 24 h was < 1.56 µM and < 0.552 µg/mL.

**Q.** What about the “increase in metabolic half-life compared with ezutromid” value [2] of the same compound?
**A.** Its value is ~ 2 fold.

**Q.** And the half-life at 1 μM ([2]; without ANF)?
**A.** The half-life at 1 μM was 94 ± 0.2 min.

**Q.** What about the microsomal CLint at 1 μM ([2]; without ANF) of the same compound?
**A.** Its microsomal CLint at 1 μM is 14.7 ± 0.1 µL/min/mg.

**Q.** And the half-life at 1 μM [2, 5]?
**A.** The half-life at 1 μM was 108 ± 11 min.

**Q.** And the microsomal CLint at 1 μM [2, 6]?
**A.** Its microsomal CLint at 1 μM is 12.8 ± 1.4 µL/min/mg.

**Q.** What about the IC50 [3] of the same compound?
**A.** The IC50 was 19 ± 18 µM.

**Q.** With CCS(=O)(=O)c1ccc2oc(-c3ccc4c(c3)CC3CC4C3)nc2c1 [50b] as the compound, how does the solubility kinetic at 24 h [1] read?
**A.** Its solubility kinetic at 24 h is < 1.56 µM and < 0.552 µg/mL.

**Q.** What about the “Relative Abundance (UV Peak Area %Total)” value ([4]; 50b at 10 µM, human liver microsomes, NADPH, 37°C, 60 min) of the same compound?
**A.** The value was 66.02%.

**Q.** And the predominant biotransformation ([4]; metabolic profiling of 50b)?
**A.** The predominant biotransformation was “mono-oxygenation of the BCHep moiety”.

**Q.** What about the “half-life compared with ezutromid” value [2] of the same compound?
**A.** The value was “slight decrease”.

**Q.** What about the half-life at 1 μM ([2]; without ANF) of the same compound?
**A.** The half-life at 1 μM was 40 ± 7 min.

**Q.** What about the microsomal CLint at 1 μM ([2]; without ANF) of the same compound?
**A.** Its microsomal CLint at 1 μM is 35.6 ± 7 µL/min/mg.

**Q.** And the half-life at 1 μM [2, 5]?
**A.** The half-life at 1 μM was 42 ± 4 min.

**Q.** What about the microsomal CLint at 1 μM [2, 6] of the same compound?
**A.** The microsomal CLint at 1 μM was 33.6 ± 2.7 µL/min/mg.

**Q.** And the IC50 [3]?
**A.** The IC50 was 2.12 ± 0.3 µM.

**Q.** What does the source list for CCS(=O)(=O)c1ccc2oc(-c3ccc4c(c3)C3CC(C4)C3)nc2c1 [50c]?
**A.** half-life at 1 μM ([2]; without ANF): 48 ± 8 min; microsomal CLint at 1 μM ([2]; without ANF): 29.9 ± 4.9 µL/min/mg; half-life at 1 μM [2, 5]: 56 ± 10 min; microsomal CLint at 1 μM [2, 6]: 25.7 ± 4.6 µL/min/mg; IC50 [3]: 13.1 ± 2 µM

**Q.** With CCS(=O)(=O)c1ccc2oc(-c3ccc4ccccc4c3)nc2c1 [Ezutromid, ezutromid, reference compound] as the compound, how does the solubility kinetic at 24 h [1] read?
**A.** The solubility kinetic at 24 h was < 1.56 µM and < 0.527 µg/mL.

**Q.** And the “primary or secondary end points” value (utrophin; after 48 weeks of treatment)?
**A.** Its value is “failed to meet”.

**Q.** What about the levels of utrophin (utrophin; repeated dosing, 24-week data) of the same compound?
**A.** The levels of utrophin was “increased”.

**Q.** What about the muscle fibre damage (utrophin; repeated dosing, 24-week data) of the same compound?
**A.** Its muscle fibre damage is “statistically significant reduction”.

**Q.** And the half-life at 1 μM ([2]; without ANF)?
**A.** The half-life at 1 μM was 60 ± 5 min.

**Q.** What about the microsomal CLint at 1 μM ([2]; without ANF) of the same compound?
**A.** Its microsomal CLint at 1 μM is 23.3 ± 2 µL/min/mg.

**Q.** What about the half-life at 1 μM [2, 5] of the same compound?
**A.** Its half-life at 1 μM is 89 ± 6 min.

**Q.** What about the microsomal CLint at 1 μM [2, 6] of the same compound?
**A.** The microsomal CLint at 1 μM was 15.8 ± 1.1 µL/min/mg.

**Q.** What about the IC50 [3] of the same compound?
**A.** Its IC50 is 0.27 µM.
